From ChEMBL document CHEMBL1141332, “Cytotoxic metabolites from an Indonesian sponge Lendenfeldia sp” (J Nat Prod, 2007)

Experiments:
Format in all cases: functional
UO-31 = experiment: Cytotoxicity against human UO31 cells
HCT-116 = experiment: Cytotoxicity against human HCT116 cells
MCF7 = experiment: Cytotoxicity against human MCF7 cells
NCI-H23 = experiment: Cytotoxicity against human NCI-H23 cells
PC-3 = experiment: Cytotoxicity against human PC3 cells
SK-MEL-2 = experiment: Cytotoxicity against human SK-MEL-2 cells
NCI-H226 = experiment: Cytotoxicity against human NCI-H226 cells
A549 = experiment: Cytotoxicity against human A549 cells
ACHN = experiment: Cytotoxicity against human ACHN cells
DU-145 = experiment: Cytotoxicity against human DU145 cells
OVCAR-4 = experiment: Cytotoxicity against human OVCAR4 cells
BT-549 = experiment: Cytotoxicity against human BT549 cells
UACC-257 = experiment: Cytotoxicity against human UACC257 cells
SK-MEL-28 = experiment: Cytotoxicity against human SK-MEL-28 cells
SK-OV-3 = experiment: Cytotoxicity against human SK-OV-3 cells
RPMI-8226 = experiment: Cytotoxicity against human RPMI8226 cells
IGROV-1 = experiment: Cytotoxicity against human IGROV1 cells
Malme-3M = experiment: Cytotoxicity against human MALME-3M cells
HOP-92 = experiment: Cytotoxicity against human HOP92 cells
HL-60 = experiment: Cytotoxicity against human HL60 cells; details: Homo sapiens, HL-60
EKVX = experiment: Cytotoxicity against human EKVX cells
NCI/ADR-RES = experiment: Cytotoxicity against human NCI/ADR-RES cells
MDA-MB-435 = experiment: Cytotoxicity against human MDA-MB-435 cells
KM12 = experiment: Cytotoxicity against human KM12 cells
TK-10 = experiment: Cytotoxicity against human TK10 cells
M14 = experiment: Cytotoxicity against human M14 cells
786-0 = experiment: Cytotoxicity against human 786-0 cells
SNB-75 = experiment: Cytotoxicity against human SNB75 cells
MOLT-4 = experiment: Cytotoxicity against human MOLT4 cells
SNB-19 = experiment: Cytotoxicity against human SNB19 cells; details: read-out: Log LC50 (the source's name) (converted)
NCI-H322M = experiment: Cytotoxicity against human NCI-H322M cells
OVCAR-3 = experiment: Cytotoxicity against human OVCAR-3 cells
UACC-62 = experiment: Cytotoxicity against human UACC62 cells
OVCAR-5 = experiment: Cytotoxicity against human OVCAR5 cells
SF-539 = experiment: Cytotoxicity against human SF539 cells
HCC 2998 = experiment: Cytotoxicity against human HCC2998 cells
[1] = Cytotoxicity against human HS578T cells; details: Hs-578T
SN12C = experiment: Cytotoxicity against human SN12C cells
RXF 393 = experiment: Cytotoxicity against human RXF393 cells
K562 = experiment: Cytotoxicity against human K562 cells
COLO 205 = experiment: Cytotoxicity against human COLO205 cells
LOX IMVI = experiment: Cytotoxicity against human LOX IMVI cells
SK-MEL-5 = experiment: Cytotoxicity against human SK-MEL-5 cells
HT-29 = experiment: Cytotoxicity against human HT29 cells
NCI-H460 = experiment: Cytotoxicity against human NCI-H460 cells
[2] = read-out: Log LC50 (the source's name) (converted)

## CC(=O)C1=CC[C@H]2[C@]3(C)CC[C@H]4C(C)(C)CCC[C@]4(C(=O)O)[C@H]3CC(=O)[C@]2(C)[C@H]1C=O
UO-31
  GI50: 1.2 µM
  LC50: 5.62 µM
UO-31; read-out: Log TGI (converted)
  TGI: 2.57 µM
HCT-116
  GI50: 0.468 µM
HCT-116; [2]
  CC50: 4.07 µM
HCT-116; read-out: Log TGI (converted)
  TGI: 1.62 µM
MCF7
  GI50: 0.813 µM
  LC50: 51.3 µM
MCF7; read-out: Log TGI (converted)
  TGI: 9.33 µM
NCI-H23
  GI50: 2 µM
NCI-H23; [2]
  CC50: 9.12 µM
NCI-H23; read-out: Log TGI (converted)
  TGI: 4.27 µM
PC-3
  GI50: 0.977 µM
  LC50: 18.2 µM
PC-3; read-out: Log TGI (converted)
  TGI: 3.63 µM
SK-MEL-2
  GI50: 2.4 µM
SK-MEL-2; [2]
  CC50: 37.2 µM
SK-MEL-2; read-out: Log TGI (converted)
  TGI: 5.25 µM
NCI-H226
  GI50: 1.82 µM
NCI-H226; read-out: Log TGI (converted)
  TGI: 3.8 µM
A549
  GI50: 2.57 µM
A549; [2]
  CC50: 74.1 µM
A549; read-out: Log TGI (converted)
  TGI: 12.6 µM
ACHN
  GI50: 0.479 µM
  LC50: 4.17 µM
ACHN; read-out: Log TGI (converted)
  TGI: 1.7 µM
DU-145
  GI50: 1.32 µM
  LC50: 5.5 µM
DU-145; read-out: Log TGI (converted)
  TGI: 2.69 µM
OVCAR-4
  GI50: 0.813 µM
OVCAR-4; [2]
  CC50: 56.2 µM
OVCAR-4; read-out: Log TGI (converted)
  TGI: 4.68 µM
BT-549
  GI50: 1.26 µM
  LC50: 6.17 µM
BT-549; read-out: Log TGI (converted)
  TGI: 2.75 µM
UACC-257
  GI50: 2.4 µM
UACC-257; [2]
  CC50: 42.7 µM
UACC-257; read-out: Log TGI (converted)
  TGI: 6.46 µM
SK-MEL-28
  GI50: 0.355 µM
SK-MEL-28; [2]
  CC50: 4.47 µM
SK-MEL-28; read-out: Log TGI (converted)
  TGI: 1.35 µM
SK-OV-3
  GI50: 3.02 µM
SK-OV-3; [2]
  CC50: 37.2 µM
SK-OV-3; read-out: Log TGI (converted)
  TGI: 10.2 µM
RPMI-8226
  GI50: 0.603 µM
RPMI-8226; [2]
  CC50: 12.9 µM
RPMI-8226; read-out: Log TGI (converted)
  TGI: 2.34 µM
IGROV-1
  GI50: 2.57 µM
IGROV-1; [2]
  CC50: 50.1 µM
IGROV-1; read-out: Log TGI (converted)
  TGI: 8.13 µM
Malme-3M
  GI50: 1.62 µM
Malme-3M; [2]
  CC50: 6.76 µM
Malme-3M; read-out: Log TGI (converted)
  TGI: 3.31 µM
HOP-92
  GI50: 1.91 µM
HOP-92; [2]
  CC50: 7.41 µM
HOP-92; read-out: Log TGI (converted)
  TGI: 3.72 µM
HL-60
  GI50: 0.282 µM
HL-60; [2]
  CC50: 6.31 µM
HL-60; read-out: Log TGI (converted)
  TGI: 1.38 µM
EKVX
  GI50: 2.14 µM
EKVX; [2]
  CC50: 25.1 µM
EKVX; read-out: Log TGI (converted)
  TGI: 5.62 µM
NCI/ADR-RES
  GI50: 1.91 µM
  LC50: 8.91 µM
NCI/ADR-RES; read-out: Log TGI (converted)
  TGI: 4.07 µM
MDA-MB-435
  GI50: 1.55 µM
  LC50: 6.17 µM
MDA-MB-435; read-out: Log TGI (converted)
  TGI: 3.09 µM
KM12
  GI50: 1.41 µM
KM12; [2]
  CC50: 21.4 µM
KM12; read-out: Log TGI (converted)
  TGI: 3.89 µM
TK-10
  GI50: 1.17 µM
  LC50: 6.61 µM
TK-10; read-out: Log TGI (converted)
  TGI: 2.82 µM
M14
  GI50: 1.82 µM
M14; [2]
  CC50: 6.92 µM
M14; read-out: Log TGI (converted)
  TGI: 3.55 µM
786-0
  GI50: 0.603 µM
786-0; [2]
  CC50: 4.37 µM
786-0; read-out: Log TGI (converted)
  TGI: 1.91 µM
SNB-75
  GI50: 1.82 µM
SNB-75; [2]
  CC50: 5.89 µM
SNB-75; read-out: Log TGI (converted)
  TGI: 3.31 µM
MOLT-4
  GI50: 0.257 µM
MOLT-4; [2]
  CC50: 4.47 µM
MOLT-4; read-out: Log TGI (converted)
  TGI: 0.912 µM
SNB-19
  CC50: 3.02 µM
NCI-H322M
  GI50: 3.55 µM
NCI-H322M; [2]
  CC50: 42.7 µM
NCI-H322M; read-out: Log TGI (converted)
  TGI: 10.5 µM
OVCAR-3
  GI50: 0.295 µM
OVCAR-3; [2]
  CC50: 3.47 µM
OVCAR-3; read-out: Log TGI (converted)
  TGI: 1.02 µM
UACC-62
  GI50: 1.74 µM
UACC-62; [2]
  CC50: 5.89 µM
UACC-62; read-out: Log TGI (converted)
  TGI: 3.24 µM
OVCAR-5
  GI50: 1.86 µM
OVCAR-5; [2]
  CC50: 8.91 µM
OVCAR-5; read-out: Log TGI (converted)
  TGI: 4.07 µM
SF-539
  GI50: 0.741 µM
SF-539; [2]
  CC50: 4.57 µM
SF-539; read-out: Log TGI (converted)
  TGI: 2.04 µM
HCC 2998
  GI50: 1.62 µM
HCC 2998; [2]
  CC50: 5.62 µM
HCC 2998; read-out: Log TGI (converted)
  TGI: 3.02 µM
[1]
  GI50: 1.74 µM
  LC50: 19.1 µM
[1]; read-out: Log TGI (converted)
  TGI: 4.37 µM
SN12C
  GI50: 1.55 µM
  LC50: 6.46 µM
SN12C; read-out: Log TGI (converted)
  TGI: 3.16 µM
RXF 393
  GI50: 1.17 µM
RXF 393; read-out: Log TGI (converted)
  TGI: 2.57 µM
K562
  GI50: 2.04 µM
K562; [2]
  CC50: 20.9 µM
K562; read-out: Log TGI (converted)
  TGI: 5.01 µM
COLO 205
  GI50: 0.794 µM
COLO 205; [2]
  CC50: 7.41 µM
COLO 205; read-out: Log TGI (converted)
  TGI: 2.57 µM
LOX IMVI
  GI50: 1.45 µM
LOX IMVI; [2]
  CC50: 5.62 µM
LOX IMVI; read-out: Log TGI (converted)
  TGI: 2.82 µM
SK-MEL-5
  GI50: 1.45 µM
SK-MEL-5; [2]
  CC50: 5.25 µM
SK-MEL-5; read-out: Log TGI (converted)
  TGI: 2.75 µM
HT-29
  GI50: 0.257 µM
HT-29; [2]
  CC50: > 100 µM
HT-29; read-out: Log TGI (converted)
  TGI: 1.62 µM
NCI-H460
  GI50: 1.66 µM
NCI-H460; [2]
  CC50: 8.71 µM
NCI-H460; read-out: Log TGI (converted)
  TGI: 3.8 µM
